We go through 13 compounds from US9872514B2, “Compounds, compositions, and methods for reducing or eliminating bitter taste” (Chromocell Corporation, priority 2010, dated 2018).

Holding throughout (format): in vivo, humans
Test [1] relates to bitter taste of an aqueous solution of potassium lactate. Put plainly: Sip and spit bitterness rating of aqueous potassium lactate test solutions. The following applies: Homo sapiens, aqueous potassium lactate 41 g/L, 1% EtOH, dash = none of the tested conc. On the procedure:
(§1) A set of KCl solution standards was developed and each standard solution was assigned a bitterness taste score of 0-15 (corresponding to aqueous KCl concentrations of 0 mM-120 mM). Panelists were trained to recognize these standards. In addition, before each day of testing, panelists were tested to see if they could determine differences in taste between the standard solutions. If a panelist was unable to recognize a change in KCl concentration, they were excluded from the panel for that day.
(§2) In a blind taste test, panelists were asked to compare the bitter taste of a small quantity (e.g., 8 ml) of each of the KCl Test Solutions to the taste of a KCl solution standard, without swallowing (see, e.g., Table 1). Specifically, panelists were asked to rate the bitterness of each KCl Test Solution on a scale of 0-15 using the same scale developed for the KCl solution standards. Each sample was tested in 2-4 discrete taste test experiments. Panelists were asked to rinse with water, eat a cracker, and wait approximately 10 minutes between samples.
Edible potassium lactate solution compositions (“potassium lactate test solutions”) were prepared by first dissolving varying amounts of the test compounds in an amount of ethanol or water (depending on the solubility of the compound) to create a 5 mg/mL stock compound solution. An amount of this stock compound solution is then added to an aqueous potassium lactate solution. Enough EtOH is then added to the resulting stock compound/potassium lactate solution so that the final potassium lactate test solution contains 1% EtOH. Potassium lactate solution standards were similarly prepared by dissolving various amounts of potassium lactate in water and ethanol without adding any test compound.
The effect of the test compounds on the perception of the bitter taste of an aqueous solution of potassium lactate in humans was evaluated using the “sip and spit” test described in Example 2.

In test [2] the test system is bitter taste of an aqueous solution of KCl. Put plainly: Sip and spit bitterness rating of aqueous KCl test solutions. The conditions noted are these: Homo sapiens, aqueous KCl 4.85 g/L, 1% EtOH, bitterness scored 0-15 vs KCl standard, dash = none of the tested conc. On the procedure: An amount of this stock compound solution is then added to an aqueous KCl solution. Enough EtOH is then added to the resulting stock compound/KCl solution so that the final KCl test solution contains 1% EtOH. KCl solution standards were similarly prepared by dissolving various amounts of KCl in water and ethanol without adding any test compound.
The effect of the test compounds an the perception of the bitter taste of an aqueous solution of KCl in humans was evaluated using a “sip and spit” test as follows.
as §1, §2

Test [3] relates to bitter taste of KCl foodstuff slurries. Description: Two-alternative forced choice (2AFC) sip and spit test of KCl turkey foodstuff slurries. The conditions noted are these: Homo sapiens, turkey slurry, 1.6% KCl, 2AFC vs KCl slurry standard, dash = none of the tested conc. On the procedure: Edible KCl food compositions (“KCl test foodstuff slurries”) were prepared as follows. Dehydrated, salt-free turkey powder was weighed and mixed with various amounts of KCl and/or NaCl and then solubilized with boiling water to create a homogenized solubilized turkey slurry. Varying amounts of the test compounds were dissolved in an amount of ethanol or water (depending on the solubility of the compound) to create a 5 mg/mL stock compound solution. An amount of this stock compound solution was then added to the turkey slurry. Enough EtOH is then added to the resulting stock compound/turkey slurry so that the slurry contains 1% EtOH. The slurry was again homogenized by boiling and mixing and allowed to cool to yield the final KCl test foodstuff slurry for taste testing KCl foodstuff slurry standards were similarly prepared without any test compound.
The effect of the test compounds on the perception of the bitter taste of KCl foodstuff slurries in humans was evaluated using a two-alternative-forced-choice “sip and spit” test as follows.
(§3) In a blind taste test, panelists received two portions of turkey slurry—one portion being the KCl foodstuff slurry standard and the other being one of the KCl test foodstuff slurries (each prepared as described in Example 5). The panelists tasted each of the portions by sipping and spitting. Each sample was tested in 2-4 discrete taste test experiments. Panelists were asked to rinse with water, eat a cracker, and wait about 10 minutes between samples. In each case, the panelists were asked to compare the bitter taste of the two turkey samples to each other (i.e., panelists were asked to indicate which sample was less bitter).

In test [4] the test system is bitter taste of KCl in solid-matrix foodstuffs. Description: Latin Square-2AFC chew and spit test of KCl solid turkey. The conditions noted are these: Homo sapiens, 1.6% KCl (80% KCl:20% NaCl marinade), dash = none of the tested conc. As to the method:
The effect of the test compounds on the perception of the bitter taste of KCl in solid-matrix foodstuffs in humans was evaluated using a “chew and spit” test using a Latin Square-2AFC testing method as follows.
Two types of marinades containing Prague powder, sugar, Evian™ water, KCl and/or NaCl in water were prepared. One marinade contained 80% KCl, 20% NaCl (by weight) (i.e., marinade concentration of […]). A second marinade contained 60% KCl:40% NaCl (by weight) (i.e., marinade concentration of 1.2% KCl). Compound stock solutions were prepared by dissolving an amount of test compound in ethanol or water (depending on the solubility of the compound) to create a 5 mg/mL stock compound solution. Enough ethanol was added to each stock compound solution to generate a final stock compound solution containing 1% ethanol. The marinade, the stock compound solution and ground turkey were added to a mixing bowl, mixed at low-speed for about 2 minutes, and then mixed at high-speed for about 5 minutes. The marinated turkey mixture was divided into one pound aliquots, vacuum sealed into food saver bags, and allowed to marinate for about 2 hours in a refrigerator. The vacuum-sealed turkey was then cooked in an about 86° C. water bath for about 30 minutes. If after about 30 minutes, the internal turkey temperature had not reached about 170° F., the vacuum-sealed turkey was cooked for about an additional 5 minutes. The vacuum-sealed turkey was then refrigerated for about two weeks before taste testing. KCl standards were similarly prepared by dissolving KCl in the marinade without adding any test compound during the turkey preparation.
The panelists tasted portions by chewing and spitting. In order to eliminate any effects of sample order, a complete Latin Square design was employed so that each possible order of sample presentation was utilized across subjects. Each simple was tested in several discrete taste test experiments. Panelists were asked to rinse with water, cat a cracker, and wait about 10 minutes between samples. In each case, the panelists were asked to choose the sample that tasted less bitter.

The test system of test [5] is bitter taste of an aqueous solution of KCl. Put plainly: Latin Square-2AFC sip and spit test of aqueous KCl solutions. The conditions noted are these: Homo sapiens, aqueous KCl 4.85 g/L, Latin Square-2AFC vs KCl standard, dash = none of the tested conc. As to the method: The effect of the test compounds on the perception of the bitter taste of an aqueous solution of KCl in humans was evaluated using a “sip and spit” test using a Latin Square-2AFC testing method as follows.
In a blind taste test, panelists were asked to compare the bitter taste of a small quantity (e.g., 8 ml) of a KCl Test Solution to the taste of a KCl solution standard (prepared as described in Example 1), without swallowing. NaCl solution standards were prepared as described in Example 1.
In order to eliminate any effects of sample order, a complete Latin Square design was employed so that each possible order of sample presentation was utilized across subjects. Each sample was tested in several discrete taste test experiments. Panelists were asked to rinse with water, eat a cracker, and wait about 10 minutes between samples. In each case, the panelists were asked to choose the sample which tasted “less bitter.” Illustrative results of the aqueous solution Latin Square-2AFC testing are presented in Table 5.

Test [6] deals with bitter taste of potassium lactate foodstuffs. Put plainly: 2AFC sip and spit test of potassium lactate turkey foodstuff slurries. The following applies: turkey slurry, 4.5% potassium lactate, 2AFC vs standard; dash = none of the tested conc. On the procedure: as §3
Edible potassium lactate food compositions (“potassium lactate test foodstuff slurries”) were prepared as follows. Dehydrated, salt-free turkey powder was weighed and mixed with various amounts of potassium lactate and/or sodium lactate and then solubilized with boiling water to create a homogenized solubilized turkey slurry. Varying amounts of the test compounds were dissolved in an amount of ethanol or water depending on the solubility of the compound) to create a 5 mg/mL stock compound solution. An amount of this stock compound solution was then added to the turkey slurry. Enough EtOH is then added to the resulting stock compound/turkey slurry so that the final slurry contains 1% EtOH. The final slurry was again homogenized by boiling and mixing and allowed to cool to yield the final slurry for taste testing. Potassium lactate foodstuff slurry standards were similarly prepared without any test compound.
The effect of the test compounds on the perception of the bitter taste of potassium lactate foodstuffs in humans was evaluated using the two-alternative-forced-choice “sip and spit” test described in Example 6.

[7] abbreviates: read-out: Conc. Where Decrease in Bitter Taste Was Discerned.
Setting [8] is: read-out: Conc. Where Decrease in Bitter Taste Discerned and p ≦ 0.1.
Where [9] appears, read: read-out: Conc. at Which At Least 50% of Panelist Discerned Decrease in Bitter Taste.
[10] abbreviates: read-out: Conc. at Which At Least 50% of Panelist Discerned Decrease in Bitter Taste and p ≦ 0.1.

Each structure is given as a SMILES string. Read-outs that look alike come from different tables or passages of the source.

On to `CCC(=O)OCCC(C)CCC=C(C)C` (centres unmarked) [Compound 10], for which the minimal effective concentration was determined as 0.1 µg/mL in test [1] (setting [7]), 1 µg/mL in test [2] (setting [8]), 0.1 µg/mL in test [3] (setting [9]) and 0.5 µg/mL in test [4] (setting [9]).
Regarding `CCC1(O)C2(C)CCC(C2)C1(C)C` (centres unmarked) [Compound 85], the minimal effective concentration in test [5] (setting [9]) came to 0.005 µg/mL; in test [1] (setting [8]), 5 µg/mL; in test [1] (setting [7]) it was 5 µg/mL; in test [2] (setting [8]) it was 1 µg/mL; in test [4] (setting [10]), 1 µg/mL.
On to `CCC(=O)OC/C=C(\C)CCC=C(C)C` [Compound 22], for which the results for the minimal effective concentration in test [5] (setting [10]), in test [1] (setting [8]) and in test [2] (setting [8]) were 0.25 µg/mL, 1 µg/mL and 1 µg/mL, respectively.
As to `CC(C)=CCC/C(C)=C\CO` [Compound 31], the minimal effective concentration was determined as 10 µg/mL in test [1] (setting [8]), 10 µg/mL in test [2] (setting [8]), 10 µg/mL in test [3] (setting [9]) and 4 µg/mL in test [4] (setting [10]).
In the case of `COc1ccc2c(=O)cc(-c3ccccc3)oc2c1` [Compound 95], the minimal effective concentration in test [1] (setting [8]) amounted to 1 µg/mL. Besides, in test [6], the “Conc. at Which At Least 50% of Panelist Discerned Decrease in Bitter Taste and p ≦ 0.1” value is 10 ppm.
`O=Cc1ccc2c(c1)OCO2` [Compound 114]: the minimal effective concentration in test [5] (setting [10]) is 25 µg/mL.
Take `CC(C)=CCC/C(C)=C\COC(=O)C(C)C` [Compound 34]: the minimal effective concentration worked out at 1 µg/mL in test [1] (setting [8]) and 2 µg/mL in test [4] (setting [9]).
Turning to `O=C1CCc2ccccc2O1` [Compound 53], the minimal effective concentration in test [5] (setting [9]) worked out at 1 µg/mL; in test [1] (setting [8]), 10 µg/mL; in test [1] (setting [7]), 10 µg/mL; in test [2] (setting [8]), 10 µg/mL. Further, the “Conc. at Which At Least 50% of Panelist Discerned Decrease in Bitter Taste” value in test [6] is on record as 5 ppm.
For `CC12CCC(CC1=O)C2(C)C` (centres unmarked) [Compound 74], the minimal effective concentration in test [5] (setting [10]) worked out at 1 µg/mL; in test [1] (setting [8]), 1 µg/mL; in test [1] (setting [7]), 1 µg/mL; in test [3] (setting [9]) it was 10 µg/mL; in test [4] (setting [10]) it was 10 µg/mL. In addition, in test [6], the “Conc. at Which At Least 50% of Panelist Discerned Decrease in Bitter Taste” value is given as 1 ppm.
Take `C[C@H]1CC[C@@H](C(C)(C)O)CC2=C1CC[C@@H]2C` [Compound 120]: the “Conc. at Which At Least 50% of Panelist Discerned Decrease in Bitter Taste” value in test [6] was 10 ppm. Besides, the minimal effective concentration in test [3] (setting [9]) came to 10 µg/mL.
Regarding `CC(C)=CCCC(C)CCOC(=O)C(C)C` (centres unmarked) [Compound 11], the minimal effective concentration in test [5] (setting [9]) came out at 1 µg/mL; in test [2] (setting [8]), 10 µg/mL.
Regarding `OCc1ccc(O)cc1` [Compound 69], the figures for the minimal effective concentration in test [2] (setting [8]), in test [3] (setting [10]) and in test [4] (setting [10]) were 1 µg/mL, 10 µg/mL and 1 µg/mL, respectively.
Consider `CC(=O)OC/C=C(\C)CCC[C@H](C)CCC[C@H](C)CCCC(C)C` [Compound 41], for which the minimal effective concentration in test [5] (setting [10]) amounted to 1 µg/mL; in test [1] (setting [7]), 5 µg/mL; in test [2] (setting [8]) it was 10 µg/mL; in test [2] (setting [7]) it was 10 µg/mL; in test [4] (setting [10]) it was 2.5 µg/mL.
